Each structure is given as a SMILES string. pIC50: −log10 of the molar value. Where a name gives a salt, the structure may show the parent alone.

This is an account of results in patent US11319315B2, “Cyclohexyl acid triazole azoles as LPA antagonists” (BRISTOL-MYERS SQUIBB COMPANY, priority 2017, dated 2022).

The target of this assay is T1, human LPA1 (Homo sapiens, UniProt Q92633).
T1 construct: expressed in transfected cells; host or cells: Chinese hamster ovary (CHO) cells
T1 sequence (Q92633 whole entry): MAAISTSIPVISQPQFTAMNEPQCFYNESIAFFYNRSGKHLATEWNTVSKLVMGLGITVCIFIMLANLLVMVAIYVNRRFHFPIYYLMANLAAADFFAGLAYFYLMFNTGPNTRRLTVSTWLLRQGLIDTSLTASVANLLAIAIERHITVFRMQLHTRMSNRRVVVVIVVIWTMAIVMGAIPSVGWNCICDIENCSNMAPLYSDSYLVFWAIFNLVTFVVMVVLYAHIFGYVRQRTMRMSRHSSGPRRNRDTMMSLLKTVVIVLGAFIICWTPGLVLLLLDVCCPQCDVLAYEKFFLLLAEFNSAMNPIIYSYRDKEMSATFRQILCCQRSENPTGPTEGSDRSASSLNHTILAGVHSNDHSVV
Description: LPA1 functional antagonist assay (LPA-induced calcium flux in CHO cells overexpressing human LPA1). The class given is cell-based. Conditions: inhibition of calcium flux induced by 10 nM LPA, CHO cells overexpressing human LPA1; read-out: hLPA1 IC50. The method, boiled down:
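CHO cells overexpressing human LPA1, dye-loaded 30 min at 37 °C, then given compound (0.08 nM–5 μM final, 0.5% DMSO) in HBSS/20 mM HEPES/0.1% fatty-acid-free BSA for 20 min at room temperature before 10 nM LPA. IC50 as 50% inhibition of LPA-evoked calcium flux, 4-parameter logistic fit.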
With `CCCCc1nnn(Cc2c(-c3ccc(O[C@H]4CCC[C@H](C(=O)O)C4)cn3)nnn2C)n1` [Example 257, (1S,3S)-3-((6-(5-((5-butyl-2H-tetrazol-2-yl)methyl)-1-methyl-1H-1,2,3-triazol-4-yl)pyridin-3-yl)oxy)cyclohexane-1-carboxylic acid], the pIC50 (as a rule, the IC50 on a negative log10 scale, so that one unit is a factor of ten) is 7.90. The result for `Cn1nnc(-c2ccc(O[C@H]3CCC[C@H](C(=O)O)C3)cn2)c1Cn1nnnc1C1CCCC1` [Example 258, (1S,3S)-3-((6-(5-((5-cyclopentyl-1H-tetrazol-1-yl)methyl)-1-methyl-1H-1,2,3-triazol-4-yl)pyridin-3-yl)oxy)cyclohexane-1-carboxylic acid] reads 6.36; that for `Cn1nnc(-c2ccc(O[C@H]3CCC[C@H](C(=O)O)C3)cn2)c1Cn1nnc(C2CCCC2)n1` [Example 259, (1S,3S)-3-((6-(5-((5-cyclopentyl-2H-tetrazol-2-yl)methyl)-1-methyl-1H-1,2,3-triazol-4-yl)pyridin-3-yl)oxy)cyclohexane-1-carboxylic acid], 7.51.

For `Cc1nc(-c2nnn(C)c2Cn2ncc(CC(C)C)n2)ccc1O[C@H]1CCC[C@H](C(=O)O)C1` [Example 260, (1 S,3 S)-3-((6-(5-((4-Isobutyl-2H-1,2,3-triazol-2-yl)methyl)-1-methyl-1H-1,2,3-triazol-4-yl)-2-methylpyridin-3-yl)oxy)cyclohexane-1-carboxylic acid], the pIC50 is 7.46. The value for `Cc1nc(-c2nnn(C)c2Cn2nncc2CC(C)C)ccc1O[C@H]1CCC[C@H](C(=O)O)C1` [Example 261, (1S,3S)-3-((6-(5-((5-isobutyl-1H-1,2,3-triazol-1-yl)methyl)-1-methyl-1H-1,2,3-triazol-4-yl)-2-methyl-pyridin-3-yl)oxy)cyclohexane-1-carboxylic acid] was 6.94; that for `Cc1nc(-c2nnn(C)c2Cn2cc(CC(C)C)nn2)ccc1O[C@H]1CCC[C@H](C(=O)O)C1` [Example 262, (1S,3S)-3-((6-(5-((4-isobutyl-1H-1,2,3-triazol-1-yl)methyl)-1-methyl-1H-1,2,3-triazol-4-yl)-2-methylpyridin-3-yl)oxy)cyclohexane-1-carboxylic acid] was 7.07. The value for `Cc1nc(-c2nnn(C)c2Cn2nncc2CC2CC2)ccc1O[C@H]1CCC[C@H](C(=O)O)C1` [Example 263, (1S,3S)-3-((6-(5-((5-(cyclopropyl-methyl)-1H-1,2,3-triazol-1-yl)-methyl)-1-methyl-1H-1,2,3-triazol-4-yl)-2-methylpyridin-3-yl)oxy)-cyclohexane-1-carboxylic acid] was 7.39. `Cc1nc(-c2nnn(C)c2Cn2ncc(CC3CC3)n2)ccc1O[C@H]1CCC[C@H](C(=O)O)C1` [Example 264, (1S,3S)-3-((6-(5-((4-(cyclopropyl-methyl)-2H-1,2,3-triazol-2-yl)methyl)-1-methyl-1H-1,2,3-triazol-4-yl)-2-methylpyridin-3-yl)oxy)cyclohexane-1-carboxylic acid]: the pIC50 is 7.85.

On to `Cc1nc(-c2nnn(C)c2Cn2cc(CC3CC3)nn2)ccc1O[C@H]1CCC[C@H](C(=O)O)C1` [Example 265, (1S,3S)-3-((6-(5-((4-(cyclopropyl-methyl)-1H-1,2,3-triazol-1-yl)methyl)-1-methyl-1H-1,2,3-triazol-4-yl)-2-methylpyridin-3-yl)oxy)cyclohexane-1-carboxylic acid], for which the pIC50 is 7.40. The result for `Cc1nc(-c2nnn(C)c2Cn2ncc(C3CC3)n2)ccc1O[C@H]1CCC[C@H](C(=O)O)C1` [Example 266, (1S,3S)-3-((6-(5-((4-cyclopropyl-2H-1,2,3-triazol-2-yl)methyl)-1-methyl-1H-1,2,3-triazol-4-yl)-2-methyl-pyridin-3-yl)oxy)cyclohexane-1-carboxylic acid] reads 7.05; that for `Cc1nc(-c2nnn(C)c2Cn2cc(C3CC3)nn2)ccc1O[C@H]1CCC[C@H](C(=O)O)C1` [Example 267, (1S,3S)-3-((6-(5-((4-cyclopropyl-1H-1,2,3-triazol-1-yl)methyl)-1-methyl-1H-1,2,3-triazol-4-yl)-2-methylpyridin-3-yl)oxy)cyclohexane-1-carboxylic acid], 5.65. In the case of `Cc1nc(-c2nnn(C)c2Cn2nncc2C2CC2)ccc1O[C@H]1CCC[C@H](C(=O)O)C1` [Example 268, (1S,3S)-3-((6-(5-((5-cyclopropyl-1H-1,2,3-triazol-1-yl)methyl)-1-methyl-1H-1,2,3-triazol-4-yl)-2-methyl-pyridin-3-yl)oxy)cyclohexane-1-carboxylic acid], the pIC50 is 6.52. The result for `CCCc1cn(Cc2c(-c3ccc(O[C@H]4CCC[C@H](C(=O)O)C4)c(C)n3)nnn2C)nn1` [Example 269, (1 S,3S)-3-((2-methyl-6-(1-methyl-5-((4-propyl-1H-1,2,3-triazol-1-yl)methyl)-1H-1,2,3-triazol-4-yl)pyridin-3-yl)oxy)cyclohexane-1-carboxylic acid] reads 7.12. The value for `CCCc1cnn(Cc2c(-c3ccc(O[C@H]4CCC[C@H](C(=O)O)C4)c(C)n3)nnn2C)n1` [Example 270, (1S,3S)-3-((2-methyl-6-(1-methyl-5-((4-propyl-2H-1,2,3-triazol-2-yl)methyl)-1H-1,2,3-triazol-4-yl)pyridin-3-yl)oxy)cyclohexane-1-carboxylic acid] was 7.21; that for `C=C(C)c1cnn(Cc2c(-c3ccc(O[C@H]4CCC[C@H](C(=O)O)C4)c(C)n3)nnn2C)n1` [Example 271, (1S,3 S)-3-((2-methyl-6-(1-methyl-5-((4-(prop-1-en-2-yl)-2H-1,2,3-triazol-2-yl)methyl)-1H-1,2,3-triazol-4-yl)pyridin-3-yl)oxy)cyclohexane-1-carboxylic acid] was 6.87.

In the case of `Cc1nc(-c2nnn(C)c2Cn2ncc(C(C)C)n2)ccc1O[C@H]1CCC[C@H](C(=O)O)C1` [Example 272, (1S,3S)-3-((6-(5-((4-isopropyl-2H-1,2,3-triazol-2-yl)methyl)-1-methyl-1H-1,2,3-triazol-4-yl)-2-methylpyridin-3-yl)oxy)cyclohexane-1-carboxylic acid], the pIC50 is 7.46. The value for `Cc1nc(-c2nnn(C)c2Cn2ncc(-c3ccccc3)n2)ccc1O[C@H]1CCC[C@H](C(=O)O)C1` [Example 273, (1 S,3S)-3-((2-methyl-6-(1-methyl-5-((4-phenyl-2H-1,2,3-triazol-2-yl)methyl)-1H-1,2,3-triazol-4-yl)pyridin-3-yl)oxy)cyclohexane-1-carboxylic acid] was 7.24. As for `Cc1nc(-c2nnn(C)c2Cn2sc(C3CC3)nc2=N)ccc1O[C@H]1CCC[C@H](C(=O)O)C1` [Example 274, (1 S,3 S)-3-((6-(5-((5-cyclopropyl-3-imino-1,2,4-thiadiazol-2(3H)-yl)methyl)-1-methyl-1H-1,2,3-triazol-4-yl)-2-methylpyridin-3-yl)oxy)cyclohexane-1-carboxylic acid], the pIC50 is 6.00.

As to `CCCCc1nc(Nc2c(-c3ccc(O[C@H]4CCC[C@H](C(=O)O)C4)c(C)n3)nnn2C)no1` [Example 275, (1 S,3 S)-3-((6-(5-((5-Butyl-1,2,4-oxadiazol-3-yl)amino)-1-methyl-1H-1,2,3-triazol-4-yl)-2-methylpyridin-3-yl)oxy)cyclohexane-1-carboxylic acid, 2 TFA salt], the pIC50 is 7.74.

For `Cc1nc(-c2nnn(C)c2Nc2nnc(CC3CC3)o2)ccc1O[C@H]1CCC[C@H](C(=O)O)C1` [Example 276, (1 S,3S)-3-((6-(5-((5-(Cyclopropylmethyl)-1,3,4-oxadiazol-2-yl)amino)-1-methyl-1H-1,2,3-triazol-4-yl)-2-methylpyridin-3-yl)oxy)cyclohexane-1-carboxylic acid, 2 TFA salt], the pIC50 is 6.35. The result for `Cc1nc(-c2nnn(C)c2Nc2noc(CC3CC3)n2)ccc1O[C@H]1CCC[C@H](C(=O)O)C1` [Example 277, (1S,3S)-3-{[6-(5-{[5-(Cyclo-propylmethyl)-1,2,4-oxadiazol-3-yl]amino}-1-methyl-1H-1,2,3-triazol-4-yl)-2-methylpyridin-3-yl]oxy}cyclohexane-1-carboxylic acid, bis TFA salt] reads 7.48; that for `Cc1nc(-c2nnn(C)c2CNc2noc(CCC3CCC3)n2)c(F)cc1O[C@H]1CCC[C@H](C(=O)O)C1` [Example 278, (1S,3S)-3-((6-(5-(((5-(2-cyclobutylethyl)-1,2,4-oxadiazol-3-yl)amino)methyl)-1-methyl-1H-1,2,3-triazol-4-yl)-5-fluoro-2-methylpyridin-3-yl)oxy)cyclohexane-1-carboxylic acid], 7.52; that for `Cc1nc(-c2nnn(C)c2CNc2noc(CCC3CC3)n2)c(F)cc1O[C@H]1CCC[C@H](C(=O)O)C1` [Example 279, (1S,3S)-3-((6-(5-(((5-(2-cyclopropyl-ethyl)-1,2,4-oxadiazol-3-yl)amino)methyl)-1-methyl-1H-1,2,3-triazol-4-yl)-5-fluoro-2-methylpyridin-3-yl)oxy)cyclohexane-1-carboxylic acid], 7.29. The result for `CCCCc1nc(NCc2c(-c3nc(C)c(O[C@H]4CCC[C@H](C(=O)O)C4)cc3F)nnn2C)no1` [Example 280, (1S,3S)-3-((6-(5-(((5-butyl-1,2,4-oxadiazol-3-yl)amino)methyl)-1-methyl-1H-1,2,3-triazol-4-yl)-5-fluoro-2-methylpyridin-3-yl)oxy)cyclohexane-1-carboxylic acid] reads 6.84; that for `Cc1nc(-c2nnn(C)c2CNc2noc(CCC(C)C)n2)c(F)cc1O[C@H]1CCC[C@H](C(=O)O)C1` [Example 281, (1S,3S)-3-((5-fluoro-6-(5-(((5-isopentyl-1,2,4-oxadiazol-3-yl)amino)methyl)-1-methyl-1H-1,2,3-triazol-4-yl)-2-methylpyridin-3-yl)oxy)cyclohexane-1-carboxylic acid], 7.17.
